In US11584714B2 (priority 2018, dated 2023):
pIC50, pKi: −log10 of the molar value. Where a name gives a salt, the structure may show the parent alone. Read-outs that look alike come from different tables or passages of the source.

Tests used:
Assay type in all cases: biochemical
[1] = system: Lectin Pathway; assay: Lectin pathway activation assay in human serum (mannan-coated ELISA, C3c detection); details: 1% human serum
[2] = target: mMASP-2 (Mus musculus (Mouse), UniProt Q91WP0); assay: Enzymatic inhibition of mMASP-2
mMASP-2, sequence (Q91WP0 20-685): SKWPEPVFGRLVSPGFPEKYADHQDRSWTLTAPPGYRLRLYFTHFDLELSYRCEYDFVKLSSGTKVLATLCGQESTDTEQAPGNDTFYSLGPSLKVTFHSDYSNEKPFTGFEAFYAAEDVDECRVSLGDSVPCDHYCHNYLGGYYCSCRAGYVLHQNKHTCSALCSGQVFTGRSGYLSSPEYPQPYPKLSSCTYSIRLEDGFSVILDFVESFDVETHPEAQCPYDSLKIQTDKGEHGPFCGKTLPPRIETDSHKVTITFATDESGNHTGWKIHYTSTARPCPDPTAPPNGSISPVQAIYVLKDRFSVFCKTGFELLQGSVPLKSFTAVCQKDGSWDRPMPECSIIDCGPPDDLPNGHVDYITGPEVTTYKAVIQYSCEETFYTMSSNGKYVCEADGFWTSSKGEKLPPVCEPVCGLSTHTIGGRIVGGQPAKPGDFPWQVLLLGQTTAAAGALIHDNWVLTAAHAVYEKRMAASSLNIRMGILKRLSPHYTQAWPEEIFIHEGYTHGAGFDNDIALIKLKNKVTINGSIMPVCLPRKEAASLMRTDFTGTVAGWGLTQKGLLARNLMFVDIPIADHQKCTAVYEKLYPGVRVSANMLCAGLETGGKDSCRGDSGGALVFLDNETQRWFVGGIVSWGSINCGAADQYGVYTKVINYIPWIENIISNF

[3] = target: human α-thrombin (Homo sapiens (Human), UniProt P00734); assay: Enzymatic assay for thrombin (Boc-VPR-AMC substrate); details: for pKi: read-out: Thrombin Ki; for Ki: Thrombin Ki (μM)
[4] = target: MASP-2 (CCP1-CCP2-SP) (Homo sapiens (Human), UniProt O00187); assay: biochemical; details: for MASP-2 vs. thrombin selectivity: selectivity for MASP-2 inhibition versus thrombin
MASP-2 (CCP1-CCP2-SP), sequence (O00187 445-686): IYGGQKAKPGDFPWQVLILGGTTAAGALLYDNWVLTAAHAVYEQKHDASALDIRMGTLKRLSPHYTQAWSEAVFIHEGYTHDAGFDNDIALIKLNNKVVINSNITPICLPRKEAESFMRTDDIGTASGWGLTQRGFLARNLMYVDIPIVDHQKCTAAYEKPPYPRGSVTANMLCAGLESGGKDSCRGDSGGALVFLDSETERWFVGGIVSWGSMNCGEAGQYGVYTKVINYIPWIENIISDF

Row | Compound | pIC50 [1] | pKi [2] | pKi [3] | pKi ([4]; read-out: MASP-2 Ki) | MASP-2 vs. thrombin selectivity [4] | pKi ([2]; read-out: mMASP-2 Ki) | Ki [3] [µM] | pKi [4]
1 | Cc1cnc(NCCc2ccccc2)c(=O)n1CC(=O)NCc1cnc2[nH]cc(Cl)c2c1 [compound 1490, N-((3-Chloro-1H-pyrrolo[2,3-b]pyridin-5-yl)methyl)-2-(6-methyl-2-oxo-3-(phenethylamino)pyrazin-1(2H)-yl)acetamide Acetate salt] | 4.30 to 5.30 | 5.00 to 5.60 | > 6.30 | > 6.30 | −− (<1.0-fold) |  |  | 
2 | Cc1nc(N)ccc1CNC(=O)[C@H](C)NC(=O)[C@H]1C[C@H](Cc2cccc(Br)c2)CN1 [compound 1452, (2R,4S)—N—((S)-1-(((6-Amino-2-methylpyridin-3-yl)methyl)amino)-1-oxopropan-2-yl)-4-(3-bromobenzyl)pyrrolidine-2-carboxamide Dihydrochloride] | 5.30 to 6.30 |  |  | > 6.30 | **** (≥100-fold) | > 6.30 | 0.5 to 2.5 | 
3 | Cc1nc(N)ccc1CNC(=O)[C@H](C)NC(=O)[C@H]1C[C@H](Cc2cccc(Cl)c2)CN1 [compound 1328, (2R,4S)—N—((S)-1-(((6-amino-2-methylpyridin-3-yl)methyl)amino)-1-oxopropan-2-yl)-4-(3-chlorobenzyl)pyrrolidine-2-carboxamide Dihydrochloride] | 6.30 to 7.30 |  |  | > 6.30 | **** (≥100-fold) | > 6.30 | 0.5 to 2.5 | 
4 | Cc1nc(N)ccc1CNC(=O)[C@H](C)NC(=O)[C@H]1C[C@H](Cc2ccc(Cl)cc2Cl)CN1 [compound 1443, (2R,4S)—N—((S)-1-(((6-Amino-2-methylpyridin-3-yl)methyl)amino)-1-oxopropan-2-yl)-4-(2,4-dichlorobenzyl)pyrrolidine-2-carboxamide Dihydrochloride] | 5.30 to 6.30 |  |  | > 6.30 | *** (≥25 to <100-fold) | > 6.30 | 0.5 to 2.5 | 
5 | Cc1nc(N)ccc1CNC(=O)[C@H](C)NC(=O)[C@H]1C[C@H](Cc2ccc3nsnc3c2)CN1 [compound 1449, (2R,4S)—N—((S)-1-(((6-Amino-2-methylpyridin-3-yl)methyl)amino)-1-oxopropan-2-yl)-4-(benzo[c][1,2,5]thiadiazol-5-ylmethyl)pyrrolidine-2-carboxamide Di-trifluoroacetate salt] | 5.30 to 6.30 |  |  | > 6.30 | **** (≥100-fold) | > 6.30 | 2.5 to 10 | 
6 | C[C@H](NC(=O)[C@H]1C[C@H](Cc2ccc(C3CCC3)cc2)CN1)C(=O)NCc1cnc2[nH]cc(Cl)c2c1 [compound 1378, (2R,4S)—N—((S)-1-(((3-Chloro-1H-pyrrolo[2,3-b]pyridin-5-yl)methyl)amino)-1-oxopropan-2-yl)-4-(4-cyclobutylbenzyl)pyrrolidine-2-carboxamide Di-trifluoroacetate salt] | 5.30 to 6.30 |  |  | > 6.30 | * (≥1.0 to <5.0-fold) | > 6.30 | 0.5 to 2.5 | 
7 | Cc1nc(N)ccc1CNC(=O)[C@H](C)NC(=O)[C@H]1C[C@H](Cc2cc(Cl)cc3ccccc23)CN1 [compound 1432, (2R,4S)—N—((S)-1-(((6-Amino-2-methylpyridin-3-yl)methyl)amino)-1-oxopropan-2-yl)-4-((3-chloronaphthalen-1-yl)methyl)pyrrolidine-2-carboxamide Dihydrochloride] | 5.30 to 6.30 |  |  | > 6.30 | **** (≥100-fold) | > 6.30 | 10 to 25 | 
8 | Cc1nc(N)ccc1CNC(=O)[C@H](C)NC(=O)[C@H]1C[C@@H](c2ccccc2)CCN1 [compound 1253, (2R,4S)—N—((S)-1-(((6-Amino-2-methylpyridin-3-yl)methyl)amino)-1-oxopropan-2-yl)-4-phenylpiperidine-2-carboxamide] | 6.30 to 7.30 | 5.60 to 6.30 | < 4.60 | > 6.30 |  |  |  | 
9 | Cc1cccc(C[C@@H]2CN[C@@H](C(=O)N[C@@H](C)C(=O)NCc3ccc(N)nc3C)C2)c1 [compound 1337, (2R,4S)—N—((S)-1-(((6-amino-2-methylpyridin-3-yl)methyl)amino)-1-oxopropan-2-yl)-4-(3-methylbenzyl)pyrrolidine-2-carboxamide dihydrochloride] | 5.30 to 6.30 |  |  | > 6.30 | **** (≥100-fold) | > 6.30 | 0.5 to 2.5 | 
10 | Cc1nc(N)ccc1CNC(=O)[C@H](C)NC(=O)[C@H]1CN(Cc2ccccc2)CCN1 [compound 1347, (R)—N—((S)-1-(((6-Amino-2-methylpyridin-3-yl)methyl)amino)-1-oxopropan-2-yl)-4-benzylpiperazine-2-carboxamide Dihydrochloride] | > 7.30 |  |  | > 6.30 | *** (≥25 to <100-fold) | > 6.30 | 0.5 to 2.5 | 
11 | Cc1cc(Cl)cc(CNC(=O)[C@H](C)NC(=O)[C@H]2C[C@H](Cc3ccc(Cl)s3)CN2)c1O [compound 1456, (2R,4R)—N—((S)-1-((5-Chloro-2-hydroxy-3-methylbenzyl)amino)-1-oxopropan-2-yl)-4-((5-chlorothiophen-2-yl)methyl)pyrrolidine-2-carboxamide Dihydrochloride] | 4.30 to 5.30 |  | < 4.60 | > 6.30 |  | 5.60 to 6.30 |  | 
12 | Cc1cnc(NCCc2ccccc2)c(=O)n1CC(=O)NCc1ccc2nc(N)[nH]c2c1 [compound 1492, N-((2-Amino-1H-benzo[d]imidazol-6-yl)methyl)-2-(6-methyl-2-oxo-3-(phenethylamino)pyrazin-1(2H)-yl)acetamide Trifluoroacetamide salt] | 6.30 to 7.30 |  | > 6.30 | > 6.30 | ** (≥5.0 to <25-fold) | > 6.30 |  | 
13 | Cc1nc(N)ccc1CNC(=O)[C@H](C)NC(=O)[C@H]1C[C@H](Cc2ccc(F)c3ccccc23)CN1 [compound 1423, (2R,4S)—N—((S)-1-(((6-Amino-2-methylpyridin-3-yl)methyl)amino)-1-oxopropan-2-yl)-4-((4-fluoronaphthalen-1-yl)methyl)pyrrolidine-2-carboxamide Dihydrochloride] | 6.30 to 7.30 |  |  | > 6.30 | **** (≥100-fold) | > 6.30 | 2.5 to 10 | 
14 | Cc1nc(N)ccc1CNC(=O)[C@H](C)NC(=O)[C@H]1C[C@H](Cc2ccc(Oc3ccccc3)cc2)CN1 [compound 1430, (2R,4S)—N—((S)-1-(((6-Amino-2-methylpyridin-3-yl)methyl)amino)-1-oxopropan-2-yl)-4-(4-phenoxybenzyl)pyrrolidine-2-carboxamide Di-trifluoroacetate salt] | 5.30 to 6.30 |  | < 4.60 | > 6.30 | **** (≥100-fold) | > 6.30 |  | 
15 | Cc1nc(N)ccc1CNC(=O)[C@H](C)NC(=O)[C@H]1C[C@H](Cc2ccccc2Br)CN1 [compound 1372, (2R,4S)—N—((S)-1-(((6-Amino-2-methylpyridin-3-yl)methyl)amino)-1-oxopropan-2-yl)-4-(2-bromobenzyl)pyrrolidine-2-carboxamide Di-trifluoroacetate salt] | 6.30 to 7.30 |  | > 6.30 | > 6.30 | ** (≥5.0 to <25-fold) | > 6.30 |  | 
16 | Cc1cc(C)c(O)c(CNC(=O)[C@H](C)NC(=O)[C@H]2C[C@H](c3ccccc3)CN2)c1 [compound 1383, (2R,4R)—N—((S)-1-((2-Hydroxy-3,5-dimethylbenzyl)amino)-1-oxopropan-2-yl)-4-phenylpyrrolidine-2-carboxamide Hydrochloride] | 4.30 to 5.30 |  | < 4.60 |  |  | 5.00 to 5.60 |  | 5.60 to 6.30
17 | Cc1nc(N)ccc1CNC(=O)[C@H](C)NC(=O)[C@H]1C[C@H](Cc2cccc3ccccc23)CN1 [compound 1324, (2R,4S)—N—((S)-1-(((6-Amino-2-methylpyridin-3-yl)methyl)amino)-1-oxopropan-2-yl)-4-(naphthalen-1-ylmethyl)pyrrolidine-2-carboxamide Di-trifluoroacetate salt] | 6.30 to 7.30 |  |  | > 6.30 | *** (≥25 to <100-fold) | > 6.30 | 0.5 to 2.5 | 
18 | C[C@H](NC(=O)[C@H]1C[C@@H](c2ccccc2)CCN1)C(=O)NCc1cnc2[nH]cc(Cl)c2c1 [compound 1433, (2R,4S)—N—((S)-1-(((3-Chloro-1H-pyrrolo[2,3-b]pyridin-5-yl)methyl)amino)-1-oxopropan-2-yl)-4-phenylpiperidine-2-carboxamide] | 6.30 to 7.30 |  |  | > 6.30 | **** (≥100-fold) | > 6.30 | 0.5 to 2.5 | 
